Among the data in PubChem BioAssay (NCI) are TGI values, retold here.

Some test systems named below: HT29 colon; MDA-N; HS 578T breast; OVCAR-4 ovarian; MCF7 breast; SK-OV-3 ovarian; K-562 leukemia; NCI-H460 lung; SW-620 colon; NCI-H522 lung; ACHN renal.
Common to all, as to assay: NCI tumour cell line growth inhibition, 48 h

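Cultured in 96-well plates, cells were exposed to test compound for 48 hours across five concentrations. At the TGI there is no net growth.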 *1 amine or outer side, *2 acyl side, *3 side chain or, on linkers, in order; H or OH if unused. Where a SMILES comes first, the peptide text is derived from it. Bridges are numbered along the chain shown (N, C = ends). Roman numbers before positions name the chains, in order. [ ]: non-standard residue; d: D form. The star is where a group is joined. ξ: configuration not given here. X54 = N=C(N)NCCC[C@@H](NC(=N)CCCCCCC(=N)N[C@H](CCCNC(=N)N)C(=O)[*:2])C(=O)[*:1]; dIgl = N[C@@H](C(=O)O)C1Cc2ccccc2C1; Hyp = O=C(O)[C@@H]1C[C@@H](O)CN1; ξIgl = NC(C(=O)O)C1Cc2ccccc2C1; ξOic = O=C(O)C1CC2CCCCC2N1; ξR = N=C(N)NCCCC(N)C(=O)O; Boc = CC(C)(C)OC(=O)*; ξP = O=C(O)C1CCCN1; ξS = NC(CO)C(=O)O

Consider `N=C(N)NCCCC(NC(=O)C1CC2CCCCC2N1C(=O)[C@H](NC(=O)C(CO)NC(=O)C(NC(=O)CNC(=O)[C@@H]1C[C@@H](O)CN1C(=O)C1CCCN1C(=O)C(CCCNC(=N)N)NC(=O)[C@@H](CCCNC(=N)N)NC(=N)CCCCCCC(=N)N[C@H](CCCNC(=N)N)C(=O)NC(CCCNC(=N)N)C(=O)N1CCCC1C(=O)N1C[C@H](O)C[C@H]1C(=O)NCC(=O)NC(C(=O)NC(CO)C(=O)N[C@@H](C(=O)N1C(C(=O)NC(CCCNC(=N)N)C(=O)O)CC2CCCCC21)C1Cc2ccccc2C1)C1Cc2ccccc2C1)C1Cc2ccccc2C1)C1Cc2ccccc2C1)C(=O)O` (stereo not given in full) (I: [ξR][ξP][Hyp]G[ξIgl][ξS][dIgl][ξOic][ξR]-OH / II: [ξR][ξP][Hyp]G[ξIgl][ξS][dIgl][ξOic][ξR]-OH; linker I:N-II:N via X54), for which the TGI in the experiment on HT29 colon was 2.12 µM; with MDA-N, 5.23 µM; in the experiment with HS 578T breast, 6.82 µM; with OVCAR-4 ovarian, 4.56 µM; in the experiment with MCF7 breast, 4.04 µM; in the experiment on SK-OV-3 ovarian, 3.74 µM. Moreover, the TGI is 4.03 µM in the experiment on K-562 leukemia; 3.87 µM in the experiment with NCI-H460 lung; 6.35 µM with SW-620 colon; above 10 µM in the experiment on NCI-H522 lung; 3.91 µM in the experiment with ACHN renal.

As to `Cc1cc2nc3c(C#N)c4c(c(Nc5ccc(F)cc5)n3c2cc1C)CCC4`, the TGI in the experiment on HT29 colon, in the experiment on MDA-N, in the experiment with HS 578T breast, in the experiment on OVCAR-4 ovarian, in the experiment on MCF7 breast and in the experiment on SK-OV-3 ovarian was above 100 µM throughout. Also, the TGI in the experiment with K-562 leukemia, in the experiment with NCI-H460 lung, in the experiment on SW-620 colon, in the experiment with NCI-H522 lung and in the experiment with ACHN renal was above 100 µM in each case.

In the case of `CCn1c2nc(=O)n(CCCCCCCCSC(c3ccccc3)(c3ccccc3)c3ccccc3)c(=O)c-2nc2ccccc21`, the TGI with HT29 colon is 18.1 µM; in the experiment with MDA-N it was above 100 µM; in the experiment on HS 578T breast, above 100 µM; with OVCAR-4 ovarian, above 100 µM; in the experiment with MCF7 breast it was above 100 µM; in the experiment on SK-OV-3 ovarian, above 100 µM. Further, the TGI is above 100 µM with K-562 leukemia; above 100 µM with NCI-H460 lung; above 100 µM in the experiment on SW-620 colon; above 100 µM in the experiment with NCI-H522 lung; 60.8 µM in the experiment with ACHN renal.

For the compound `O[C@@H]1C[C@H](Cl)c2c(Cl)sc(Cl)c21`, the TGI in the experiment with HT29 colon, in the experiment with MDA-N, with HS 578T breast, with OVCAR-4 ovarian, in the experiment with MCF7 breast and in the experiment on SK-OV-3 ovarian was above 100 µM in each case. Also, the TGI in the experiment on K-562 leukemia, with NCI-H460 lung, with SW-620 colon, with NCI-H522 lung and with ACHN renal was above 100 µM each time.

Take `CCOP(=O)(CCCC(O)CNc1nc(N)nc(Cl)c1N=Nc1ccc(Cl)cc1)OCC` (stereo not given): the TGI in the experiment on HT29 colon worked out at 23.4 µM; with MDA-N it was 18.8 µM; with HS 578T breast, 30.3 µM; in the experiment with OVCAR-4 ovarian, 17.6 µM; with MCF7 breast, 27 µM; with SK-OV-3 ovarian, 19.2 µM. Further, the TGI was 16 µM in the experiment on K-562 leukemia; 37 µM with NCI-H460 lung; 36.5 µM in the experiment on SW-620 colon; 17 µM in the experiment on NCI-H522 lung; 15.4 µM with ACHN renal.

Consider `COC(=O)C(Cc1ccccc1)NC(=O)C(CS)NC(=O)OC(C)(C)C` (stereo not drawn) (Boc-Cys-Phe-OMe; configuration not given here), for which the TGI in the experiment with HT29 colon, with MDA-N, with HS 578T breast, in the experiment on OVCAR-4 ovarian, in the experiment with MCF7 breast and in the experiment with SK-OV-3 ovarian was above 100 µM each time. Besides, the TGI in the experiment with K-562 leukemia, in the experiment on NCI-H460 lung, in the experiment on SW-620 colon, in the experiment on NCI-H522 lung and in the experiment with ACHN renal was above 100 µM in each case.

Take `COc1cc(C2c3cc4c(cc3OC(NNc3ccccc3)C2C)OCO4)cc(OC)c1OC` (stereo not given): the TGI in the experiment with HT29 colon was 6.61 µM; with MDA-N it was 3.43 µM; in the experiment with HS 578T breast, above 43.4 µM; in the experiment on OVCAR-4 ovarian, above 100 µM; in the experiment on MCF7 breast it was above 35.7 µM; in the experiment with SK-OV-3 ovarian, above 100 µM. In addition, the TGI in the experiment with K-562 leukemia is above 32.1 µM; in the experiment on NCI-H460 lung, 16.4 µM; in the experiment on SW-620 colon it was above 100 µM; with NCI-H522 lung, 4.72 µM; in the experiment on ACHN renal, 27.5 µM.

As for `CC(=O)OCC1OC(N2C(=O)NC(=O)C3C=C4CCCCC4=CC32)CC1OC(C)=O` (stereo not given), the TGI in the experiment with HT29 colon, in the experiment on MDA-N, with HS 578T breast, in the experiment on OVCAR-4 ovarian, in the experiment with MCF7 breast and in the experiment with SK-OV-3 ovarian was above 100 µM in each case. Moreover, the TGI in the experiment with K-562 leukemia, with NCI-H460 lung, with SW-620 colon, in the experiment on NCI-H522 lung and in the experiment with ACHN renal was above 100 µM in each case.

`Cc1c(Cc2ccccc2)n(C(C)OCCN(OC(=O)Oc2ccccc2)C(=O)Oc2ccccc2)c(=O)[nH]c1=O` (stereo not given): the TGI with HT29 colon stood at 32.1 µM; with MDA-N, 41.4 µM; in the experiment with HS 578T breast, 42.6 µM; with OVCAR-4 ovarian, 42.8 µM; in the experiment on MCF7 breast, 63.8 µM; in the experiment on SK-OV-3 ovarian, 46.3 µM. For the same compound, the TGI was 93.5 µM with K-562 leukemia; 32.7 µM in the experiment on NCI-H460 lung; 41.7 µM with SW-620 colon; 29.3 µM in the experiment on NCI-H522 lung; 57.3 µM in the experiment on ACHN renal.

As to `C/C=C1/CN2CCC34c5ccccc5N(C)C23C2CC1C4(C(=O)OC)C(OC(C)=O)O2` (stereo not given), the TGI in the experiment on HT29 colon, in the experiment on MDA-N, in the experiment on HS 578T breast, in the experiment with OVCAR-4 ovarian, in the experiment on MCF7 breast and in the experiment with SK-OV-3 ovarian was above 100 µM throughout. Moreover, the TGI in the experiment on K-562 leukemia, in the experiment on NCI-H460 lung, with SW-620 colon, in the experiment with NCI-H522 lung and in the experiment with ACHN renal was above 100 µM throughout.

For `COc1ccccc1NC(=S)N=Nc1c(O)[nH]c2ccccc12`, the TGI with HT29 colon, in the experiment with MDA-N, in the experiment on HS 578T breast, in the experiment with OVCAR-4 ovarian, in the experiment on MCF7 breast and with SK-OV-3 ovarian was above 100 µM throughout. In addition, the TGI in the experiment with K-562 leukemia, in the experiment on NCI-H460 lung, in the experiment on SW-620 colon, in the experiment with NCI-H522 lung and in the experiment with ACHN renal was above 100 µM in each case.

On to `Cn1c2ccc(F)cc2c2ccc3c(c21)C(=O)C=CC3=O`, for which the TGI in the experiment on HT29 colon is 49.2 µM; with MDA-N, 27.7 µM; with HS 578T breast, above 86.5 µM; with OVCAR-4 ovarian, 11.1 µM; in the experiment on MCF7 breast, 16.5 µM; in the experiment on SK-OV-3 ovarian, above 100 µM. Also, the TGI in the experiment on K-562 leukemia was above 36.4 µM; in the experiment with NCI-H460 lung, above 100 µM; with SW-620 colon it was 8.54 µM; with NCI-H522 lung, 4.95 µM; in the experiment on ACHN renal, 13.7 µM.

Regarding `CC(C)NC(=O)OCc1c(COC(=O)NC(C)C)c(-c2ccc[n+](COC(=O)Cc3ccccc3)c2)n2c1CCC2`, the TGI was above 100 µM in the experiment on HT29 colon; above 100 µM in the experiment on MDA-N; above 100 µM in the experiment with HS 578T breast; 57.8 µM with OVCAR-4 ovarian; above 100 µM with MCF7 breast; above 100 µM with SK-OV-3 ovarian. For the same compound, the TGI in the experiment on K-562 leukemia was above 100 µM; in the experiment with NCI-H460 lung, above 100 µM; in the experiment with SW-620 colon, 50.5 µM; with NCI-H522 lung, 36.2 µM; in the experiment on ACHN renal, 48.4 µM.

In the case of `COC(=O)CN(CC(=O)NCCCBr)C1CCCCC1N(CC(=O)OC)CC(=O)OC` (stereo not given), the TGI in the experiment with HT29 colon, in the experiment on MDA-N, in the experiment on HS 578T breast, in the experiment on OVCAR-4 ovarian, in the experiment with MCF7 breast and in the experiment with SK-OV-3 ovarian was above 100 µM each time. In addition, the TGI in the experiment with K-562 leukemia, in the experiment with NCI-H460 lung, in the experiment with SW-620 colon, in the experiment with NCI-H522 lung and in the experiment on ACHN renal was above 100 µM each time.

For the compound `CCC(=O)Nc1cccc(N=Cc2ccc(OC(=O)/C=C\c3ccccc3)cc2)c1`, the TGI in the experiment on HT29 colon, in the experiment on MDA-N, in the experiment on HS 578T breast, in the experiment on OVCAR-4 ovarian, in the experiment with MCF7 breast and in the experiment on SK-OV-3 ovarian was above 75 µM in each case. The TGI in the experiment on K-562 leukemia, with NCI-H460 lung, in the experiment on SW-620 colon, in the experiment on NCI-H522 lung and with ACHN renal was above 75 µM each time.
